ChEMBL document CHEMBL3259645, “Design and synthesis of spirocyclic compounds as HCV replication inhibitors by targeting viral NS4B protein” (Bioorg Med Chem Lett, 2014)
≈ marks a conversion by molar mass, not a printed value.

Legend:
[1] = system: Hepatitis C virus; assay: Antiviral activity against Hepatitis C virus genotype 1a infected in human HuH7 cells assessed as inhibition of replicon replication after 48 hrs by luciferase reporter gene assay; format: functional, cell-based, Hepacivirus hominis; settings: subtype 1a, Huh-7, 48 h
[2] = system: Hepatitis C virus; assay: Antiviral activity against Hepatitis C virus genotype 1b infected in human HuH7 cells assessed as inhibition of replicon replication after 48 hrs by luciferase reporter gene assay; format: functional, cell-based, Hepacivirus hominis; settings: Huh-7, 48 h
[3] = Cytotoxicity against human HuH7 cells infected with Hepatitis C virus genotype 1b; format: cell-based, Huh-7
[4] = Cmax in rat at 5 mg/kg, po; format: ADME, organism-based; set-up: dose 5 mg/kg, route oral; settings: in vivo
[5] = Displacement of biotinylated anti-His antibody from C-terminal 6X His-tagged Hepatitis C virus genotype 1b NS4B expressed in baculovirus-infected Sf9 cells by microplate assay; set-up: species or system Hepatitis C virus subtype 1b
[6] = Kinetic solubility of the compound at pH 7.4; format: physicochemical; settings: buffer, read-out: Kinetic_solubility
[7] = AUC (0 to 24 hrs) in rat at 5 mg/kg, po; format: ADME, organism-based; set-up: time < 24 hr, dose 5 mg/kg, route oral; settings: plasma
[8] = Half life in human hepatocytes; format: ADME, cell-based, Hepatocyte
[9] = system: Hepatitis C virus; assay: Antiviral activity against Hepatitis C virus genotype 1b harboring NS4B V105M mutant infected in human HuH7 cells assessed as inhibition of replicon replication after 48 hrs by luciferase reporter gene assay; format: functional, cell-based, Hepacivirus hominis; settings: Huh-7, 48 h
[10] = system: Hepatitis C virus; assay: Ratio of EC50 for Hepatitis C virus genotype 1b harboring NS4B H94N mutant infected in human HuH7 cells to EC50 for wild type Hepatitis C virus genotype 1b infected in human HuH7 cells; format: functional, Hepacivirus hominis, Huh-7
[11] = system: Hepatitis C virus; assay: Ratio of EC50 for Hepatitis C virus genotype 1b harboring NS4B V105M mutant infected in human HuH7 cells to EC50 for wild type Hepatitis C virus genotype 1b infected in human HuH7 cells; format: functional, Hepacivirus hominis, Huh-7
[12] = Half life in rat hepatocytes; format: ADME, cell-based, Hepatocyte
[13] = Volume of distribution at steady state in rat at 1 mg/kg, iv and 5 mg/kg, po; format: ADME, organism-based; settings: in vivo, read-out: Vdss
[14] = system: Hepatitis C virus; assay: Antiviral activity against Hepatitis C virus genotype 1b harboring NS4B H94N mutant infected in human HuH7 cells assessed as inhibition of replicon replication after 48 hrs by luciferase reporter gene assay; format: functional, cell-based, Hepacivirus hominis; settings: Huh-7, 48 h
[15] = system: Hepatitis C virus; assay: Antiviral activity against Hepatitis C virus genotype 2a; format: functional, Hepacivirus hominis
[16] = Clearance in rat at 1 mg/kg, iv; format: ADME, organism-based; set-up: dose 1 mg/kg, route intravenous; settings: in vivo
[17] = Oral bioavailability in rat at 5 mg/kg; format: ADME, organism-based; settings: in vivo

SMILES: O=C1OC2(CCN(C(=O)c3nn4c(C(F)(F)F)cc(C5CC5)cc4c3Cl)CC2)CN1CCO
- EC50 [1]: 23.2 nM
- EC50 [2]: 78.5 nM
- CC50 [3]: > 50000 nM

SMILES: O=C(c1nn2c(C(F)(F)F)cc(C3CC3)cc2c1Cl)N1CCC2(CC1)OCC1(COC1)CO2
- EC50 [1]: 14.4 nM
- EC50 [2]: 3.2 nM
- CC50 [3]: > 50000 nM

SMILES: O=C(c1nn2c(C(F)(F)F)cc(C3CC3)cc2c1Cl)N1CCC2(CC1)OCCCCO2
- EC50 [1]: 46.3 nM
- EC50 [2]: 8 nM
- CC50 [3]: > 25000 nM

SMILES: O=C(c1nn2c(C(F)(F)F)cc(C3CC3)cc2c1Cl)N1CCC2(CC1)OCC1(CO2)CC(O)C1
- EC50 [1]: 2.2 nM
- EC50 [2]: 14.2 nM
- CC50 [3]: > 50000 nM

SMILES: O=C(c1nn2c(C(F)(F)F)cc(C3CC3)cc2c1Cl)N1CCC2(OCC3(CC3)CO2)C(=O)C1
- EC50 [1]: 5.1 nM
- EC50 [2]: 3.8 nM
- CC50 [3]: > 50000 nM

SMILES: O=C1CC2(CCN(C(=O)c3nn4c(C(F)(F)F)cc(C5CC5)cc4c3Cl)CC2)CN1
- EC50 [1]: 441 nM
- EC50 [2]: 1580 nM
- CC50 [3]: > 50000 nM

SMILES: O=C(c1nc2c(C(F)(F)F)cc(Br)cn2c1Cl)N1CCC(N2CCOC2=O)CC1
- EC50 [1]: 31.4 nM
- EC50 [2]: 45.5 nM

SMILES: CCN1CC2(CCN(C(=O)c3nn4c(C(F)(F)F)cc(C5CC5)cc4c3Cl)CC2)OC1=O
- EC50 [1]: 20.6 nM
- EC50 [2]: 5.9 nM
- CC50 [3]: > 50000 nM

SMILES: O=C1COC2(CCN(C(=O)c3nn4c(C(F)(F)F)cc(C5CC5)cc4c3Cl)CC2)OC1
- EC50 [1]: 18 nM
- EC50 [2]: 19.1 nM
- CC50 [3]: > 50000 nM

SMILES: O=C1OC2(CCN(C(=O)c3nn4c(C(F)(F)F)cc(C5CC5)cc4c3Cl)CC2)CN1Cc1ccccc1
- EC50 [1]: 427 nM
- EC50 [2]: 457 nM
- CC50 [3]: > 50000 nM

SMILES: CN1C[C@@]2(CCN(C(=O)c3nn4c(C(F)(F)F)cc(C5CC5)cc4c3Cl)C[C@@H]2O)OC1=O
- Cmax [4]: 344 ng/mL
- IC50 [5]: 30.4 nM
- solubility kinetic [6]: 310 µg/mL (≈ 656 µM)
- EC50 [1]: 10.9 nM
- AUC(0-t) at 24 h [7]: 1530 ng·h/mL
- half-life [8]: 2.05 h
- EC50 [9]: 1130 nM
- EC50 [2]: 6.1 nM
- Ratio EC50 [10]: 27.3
- Ratio EC50 [11]: 185
- half-life [12]: 2.2 h
- Vd [13]: 2 L/kg
- EC50 [14]: 175 nM
- EC50 [15]: 38000 nM
- clearance [16]: 25.7 mL/min/kg
- CC50 [3]: > 50000 nM
- bioavailability [17]: 49%

SMILES: O=C(c1nn2c(C(F)(F)F)cc(C3CC3)cc2c1Cl)N1CCC2(OCC3(CC3)CO2)[C@@H](O)C1
- EC50 [1]: 32.5 nM
- EC50 [2]: 8.2 nM
- CC50 [3]: > 50000 nM

SMILES: O=C(c1nn2c(C(F)(F)F)cc(C3CC3)cc2c1Cl)N1CCC2(CC1)OCC1(CCC1)CO2
- EC50 [1]: 5.1 nM
- EC50 [2]: 7.6 nM
- CC50 [3]: > 50000 nM

SMILES: CN1CC2(CCN(C(=O)c3nn4c(C(F)(F)F)cc(C5CC5)cc4c3Cl)CC2)OC1=O
- Cmax [4]: 269 ng/mL
- IC50 [5]: 23.4 nM
- solubility kinetic [6]: 267 µg/mL (≈ 584 µM)
- EC50 [1]: 2 nM
- AUC(0-t) at 24 h [7]: 1060 ng·h/mL
- half-life [8]: 1.1 h
- EC50 [9]: 20.4 nM
- EC50 [2]: 3.4 nM
- Ratio EC50 [10]: 12.5
- Ratio EC50 [11]: 6
- half-life [12]: 1.33 h
- Vd [13]: 2.1 L/kg
- EC50 [14]: 42.7 nM
- EC50 [15]: 6840 nM
- clearance [16]: 56.5 mL/min/kg
- CC50 [3]: > 50000 nM
- bioavailability [17]: 72%

SMILES: O=C(c1nn2c(C(F)(F)F)cc(C3CC3)cc2c1Cl)N1CCC2(CC1)OCC(O)CO2
- EC50 [1]: 19.5 nM
- EC50 [2]: 13.8 nM
- CC50 [3]: > 50000 nM

SMILES: CN1C[C@]2(CCN(C(=O)c3nn4c(C(F)(F)F)cc(C5CC5)cc4c3Cl)C[C@H]2O)OC1=O
- EC50 [1]: 16.7 nM
- EC50 [2]: 7.2 nM
- CC50 [3]: > 50000 nM

SMILES: O=C(c1nn2c(C(F)(F)F)cc(C3CC3)cc2c1Cl)N1CCC2(CC1)OCC1(CC1)CO2
- Cmax [4]: 254 ng/mL
- IC50 [5]: 32 nM
- solubility kinetic [6]: 105 µg/mL (≈ 223 µM)
- EC50 [1]: 9 nM
- AUC(0-t) at 24 h [7]: 693 ng·h/mL
- half-life [8]: 0.5 h
- EC50 [9]: 67.6 nM
- EC50 [2]: 4.1 nM
- Ratio EC50 [10]: 5.9
- Ratio EC50 [11]: 16.5
- half-life [12]: < 0.25 h
- Vd [13]: 4.5 L/kg
- EC50 [14]: 24.3 nM
- EC50 [15]: 6840 nM
- clearance [16]: 37.8 mL/min/kg
- CC50 [3]: > 50000 nM
- bioavailability [17]: 29%

SMILES: CN1C[C@]2(CCN(C(=O)c3nn4c(C(F)(F)F)cc(C5CC5)cc4c3Cl)C[C@@H]2O)OC1=O
- EC50 [1]: 3560 nM
- EC50 [2]: 3990 nM
- CC50 [3]: > 50000 nM

SMILES: CC1(C)COC2(CCN(C(=O)c3nn4c(C(F)(F)F)cc(C5CC5)cc4c3Cl)CC2)OC1
- EC50 [1]: 23.8 nM
- EC50 [2]: 9.8 nM
- CC50 [3]: > 25000 nM

SMILES: O=C1NCC2(CCN(C(=O)c3nn4c(C(F)(F)F)cc(C5CC5)cc4c3Cl)CC2)O1
- EC50 [1]: 166 nM
- EC50 [2]: 55.4 nM
- CC50 [3]: > 50000 nM

SMILES: CN1C[C@@]2(CCN(C(=O)c3nn4c(C(F)(F)F)cc(C5CC5)cc4c3Cl)C[C@H]2O)OC1=O
- EC50 [1]: 14.5 nM
- EC50 [2]: 7 nM
- CC50 [3]: > 50000 nM

SMILES: CN1CC2(CCN(C(=O)c3nn4c(C(F)(F)F)cc(C5CC5)cc4c3Cl)CC2)CC1=O
- EC50 [1]: 184 nM
- EC50 [2]: 69.2 nM
- CC50 [3]: > 50000 nM

SMILES: O=C(c1nn2c(C(F)(F)F)cc(C3CC3)cc2c1Cl)N1CCC2(CC1)OCCO2
- EC50 [1]: 299 nM
- EC50 [2]: 161 nM
- CC50 [3]: > 50000 nM

SMILES: O=C(c1nn2c(C(F)(F)F)cc(C3CC3)cc2c1Cl)N1CCC2(OCC3(CC3)CO2)C(O)C1 (stereo not given)
- EC50 [1]: 4.3 nM
- EC50 [2]: 2.2 nM
- CC50 [3]: > 50000 nM

SMILES: CC1COC2(CCN(C(=O)c3nn4c(C(F)(F)F)cc(C5CC5)cc4c3Cl)CC2)OC1
- EC50 [1]: 7.4 nM
- EC50 [2]: 1.2 nM
- CC50 [3]: > 50000 nM

SMILES: O=C1OC2(CCN(C(=O)c3nn4c(C(F)(F)F)cc(C5CC5)cc4c3Cl)CC2)CN1CC1CC1
- EC50 [1]: 18.1 nM
- EC50 [2]: 23.4 nM
- CC50 [3]: > 50000 nM

SMILES: O=C(c1nn2c(C(F)(F)F)cc(C3CC3)cc2c1Cl)N1CCC2(CC1)OCC(c1ccccc1)CO2
- EC50 [1]: 42.2 nM
- EC50 [2]: 209 nM
- CC50 [3]: > 50000 nM

SMILES: O=C(c1nn2c(C(F)(F)F)cc(C3CC3)cc2c1Cl)N1CCC2(OCC3(CC3)CO2)[C@H](O)C1
- Cmax [4]: 1130 ng/mL
- IC50 [5]: 10.2 nM
- solubility kinetic [6]: 323 µg/mL (≈ 665 µM)
- EC50 [1]: 1.5 nM
- AUC(0-t) at 24 h [7]: 2790 ng·h/mL
- half-life [8]: 0.833 h
- EC50 [9]: 172 nM
- EC50 [2]: 1.2 nM
- Ratio EC50 [10]: 29.9
- Ratio EC50 [11]: 143
- half-life [12]: 0.467 h
- Vd [13]: 0.8 L/kg
- EC50 [14]: 35.9 nM
- EC50 [15]: 11300 nM
- clearance [16]: 35.7 mL/min/kg
- CC50 [3]: > 50000 nM
- bioavailability [17]: > 100%

SMILES: O=C(c1nn2c(C(F)(F)F)cc(C3CC3)cc2c1Cl)N1CCC2(CC1)OCCCO2
- EC50 [1]: 33.8 nM
- EC50 [2]: 6.1 nM
- CC50 [3]: > 50000 nM

SMILES: O=C(c1nn2c(C(F)(F)F)cc(C3CC3)cc2c1Cl)N1CCCC2(C1)OCCCO2
- EC50 [1]: > 500 nM
- EC50 [2]: > 500 nM
- CC50 [3]: > 50000 nM
